Laboratory results published in patent publication US10227331B2 (priority 2015, dated 2019).
Read-outs that look alike come from different tables or passages of the source.

Experiments:
IMP-1 = IMP-1 (Serratia marcescens, UniProt P52699); test: biochemical; type: biochemical
Procedure, shortened: (§1)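 Test compound, enzyme and the FRET cephalosporin substrate CCF2-FA are incubated together for 2 hours at 25° C. Cleavage is followed by fluorescence, and IC50 values are derived from semi-logarithmic inhibition curves fitted with a 4-parameter model.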

NDM-1 = NDM-1 (Klebsiella pneumoniae, UniProt C7C422); test: biochemical; type: biochemical; details: CCF2-FA substrate, 2 hours at 25° C; read-out: NDM-1 IC50
Procedure, shortened: as §1

VIM-1 = VIM-1 (Pseudomonas aeruginosa (strain ATCC 15692 / DSM 22644 / CIP 104116 / JCM 14847 / LMG 12228 / 1C / PRS 101 / PAO1), UniProt A0A0F7KYQ8); test: biochemical; details: CCF2-FA substrate, 2 hours at 25° C
Procedure, shortened: as §1

[1] = test system: Escherichia coli expressing NDM-1 (CLB30005, CLB30016); type: cell-based; details: with imipenem 1 μg/ml, 95% inhibition of bacterial growth; for Escherichia coli MITC95: NDM-1 (CLB30016)
Procedure, shortened: (§2)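 Clinical strains grown overnight on blood agar, then diluted 1:100 in 1.1× CAMHB and exposed to test compound with imipenem at 1 μg/ml. Incubation was 22–24 h at 35° C; growth was read by absorbance to find the compound concentration restoring imipenem susceptibility.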

[2] = test system: Klebsiella pneumoniae expressing VIM-1 (IHMA599644); type: cell-based; details: with imipenem 1 μg/ml, 95% inhibition of bacterial growth; for Klebsiella pneumoniae MITC95: VIM-1 (IHMA599644)
Procedure, shortened: as §2

[3] = test system: Serratia marcescens expressing IMP-1 (CL5741); type: cell-based; details: with imipenem 1 μg/ml, 95% inhibition of bacterial growth; for Serratia marcescens MITC95: IMP-1 (CL5741)
Procedure, shortened: as §2

[4] = test system: P. aeruginosa expressing IMP-1, efflux+ (MB9798); type: cell-based, Pseudomonas aeruginosa; details: for P. aeruginosa expressing IMP-1, efflux+ (MB9798) MITC95: imipenem at 2 μg/mL, in the presence of a class A, C, D serine β-lactamase inhibitor closely related to relebactam; for Efflux ratio: ratio MITC95 PA_9798/MITC95 PA_9799
Excerpt: (§3) The strain background is Pseudomonas aeruginosa PAO1.

[5] = test system: P. aeruginosa expressing IMP-1, efflux− (MB9799); test: Efflux: concentration of MBL inhibitor which restores susceptibility to imipenem; type: cell-based, Pseudomonas aeruginosa; details: imipenem at 2 μg/mL, in the presence of a class A, C, D serine β-lactamase inhibitor closely related to relebactam
Excerpt: as §3

[6] = CCF2-FA substrate, 2 hours at 25° C, read-out: IMP-1 IC50

IMP-1, sequence (P52699 whole entry, looked up, species assumed): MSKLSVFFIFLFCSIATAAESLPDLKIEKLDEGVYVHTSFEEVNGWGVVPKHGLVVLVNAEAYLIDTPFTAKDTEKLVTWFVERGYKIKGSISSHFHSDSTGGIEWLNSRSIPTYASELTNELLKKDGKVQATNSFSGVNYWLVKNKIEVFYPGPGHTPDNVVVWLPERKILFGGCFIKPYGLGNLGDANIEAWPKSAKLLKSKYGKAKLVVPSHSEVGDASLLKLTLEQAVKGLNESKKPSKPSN
NDM-1, sequence (C7C422 whole entry, looked up, species assumed): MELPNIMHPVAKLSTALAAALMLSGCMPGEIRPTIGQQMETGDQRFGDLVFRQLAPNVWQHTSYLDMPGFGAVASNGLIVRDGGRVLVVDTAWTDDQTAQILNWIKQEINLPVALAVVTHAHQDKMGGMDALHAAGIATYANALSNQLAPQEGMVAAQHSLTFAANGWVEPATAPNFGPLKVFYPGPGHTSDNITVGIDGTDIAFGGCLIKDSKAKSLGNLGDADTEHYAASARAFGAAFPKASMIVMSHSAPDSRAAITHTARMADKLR

| SMILES | IC50 (IMP-1; [6]) [nM] | IC50 (NDM-1) [nM] | IC50 (VIM-1) [nM] | Escherichia coli expressing NDM-1 (CLB30016) MITC95 [1] [µM] | Klebsiella pneumoniae expressing VIM-1 (IHMA599644) MITC95 [2] [µM] | Serratia marcescens expressing IMP-1 (CL5741) MITC95 [3] [µM] | P. aeruginosa expressing IMP-1, efflux+ (MB9798) MITC95 [4] [µM] | Efflux ratio [4] | P. aeruginosa expressing IMP-1, efflux− (MB9799) MITC95 [5] [µM] | IC50 (IMP-1) [nM] | Escherichia coli MITC95 [1] [µM] | Klebsiella pneumoniae MITC95 [2] [µM] | Serratia marcescens MITC95 [3] [µM] |
| --- | --- | --- | --- | --- | --- | --- | --- | --- | --- | --- | --- | --- | --- |
| NC1CCC(c2ccc(S(=O)(=O)C3CCNCC3)c(S(N)(=O)=O)c2-c2nnn[nH]2)CC1 (stereo not drawn) [Example 206, 3-(4-aminocyclohexyl)-6-(piperidin-4-ylsulfonyl)-2-(1H-tetrazol-5-yl) benzenesulfonamide] | 23.5 | 20.3 | 0.857 | 6.25 | 3.125 | 3.125 | 3.125 | 2.00 | 1.563 | – | – | – | – |
| NS(=O)(=O)c1c(S(=O)(=O)C2CNC2)ccc(-c2cccc3cccnc23)c1-c1nnn[nH]1.O=C(O)C(F)(F)F [Example 128, 3-((4-(quinolin-8-yl)-2-sulfamoyl-3-(1H-tetrazol-5-yl)phenyl)sulfonyl)azetidin-1-ium 2,2,2-trifluoroacetate] | 0.524 | 0.134 | 0.314 | 1.563 | 3.125 | 3.125 | 3.125 | 2.00 | 1.563 | – | – | – | – |
| NCCS(=O)(=O)c1ccc(-c2c[nH]c3nccnc23)c(-c2nnn[nH]2)c1S(N)(=O)=O.O=C(O)C(F)(F)F [Example 136, 2-((4-(5H-pyrrolo[2,3-b]pyrazin-7-yl)-2-sulfamoyl-3-(1H-tetrazol-5-yl)phenyl)sulfonyl)ethanaminium 2,2,2-trifluoroacetate] | 1.72 | 2.14 | 1.19 | 1.563 | 3.125 | 1.563 | 12.5 | 16.00 | 0.7813 | – | – | – | – |
| Nc1nc2c(-c3ccc(S(=O)(=O)CCN4CCOCC4)c(S(N)(=O)=O)c3-c3nn[nH]n3)cccc2s1 [Example 258, 3-(2-Aminobenzo[d]thiazol-4-yl)-6-((2-morpholinoethyl)sulfonyl)-2-(2H-tetrazol-5-yl)benzenesulfonamide] | – | 0.228 | 0.454 | – | – | – | 12.5 | 2.00 | 6.25 | 0.469 | 25 | 25 | 12.5 |
| CS(=O)(=O)c1ccc(-c2cccc3sc(N)nc23)c(-c2nn[nH]n2)c1S(N)(=O)=O [Example 239, 3-(2-aminobenzo[d]thiazol-4-yl)-6-(methylsulfonyl)-2-(2H-tetrazol-5-yl) benzenesulfonamide] | 0.0909 | 0.129 | 0.108 | 12.5 | 6.25 | 3.125 | 1.563 | 1.00 | 1.563 | – | – | – | – |
| NS(=O)(=O)c1c(S(=O)(=O)C2CCNCC2)ccc(-c2ccc(C3CCNCC3)cc2)c1-c1nnn[nH]1 [Example 228, 4′-(piperidin-4-yl)-4-(piperidin-4-ylsulfonyl)-2-(1H-tetrazol-5-yl)-[1,1′-biphenyl]-3-sulfonamide] | 0.521 | 0.985 | 0.314 | 1.563 | 3.125 | 3.125 | 0.7813 | 1.00 | 0.7813 | – | – | – | – |
| NCCS(=O)(=O)c1ccc(-c2cnc3cccnc3c2)c(-c2nnn[nH]2)c1S(N)(=O)=O.O=C(O)C(F)(F)F [Example 134, 2-((4-(1,5-naphthyridin-3-yl)-2-sulfamoyl-3-(1H-tetrazol-5-yl)phenyl)sulfonyl)ethanaminium 2,2,2-trifluoroacetate] | 2.47 | 2.65 | 0.991 | 6.25 | 6.25 | 3.125 | 25 | 15.99 | 1.563 | – | – | – | – |
| NCCS(=O)(=O)c1ccc(-c2cccc3[nH]c(=O)[nH]c23)c(-c2nnn[nH]2)c1S(N)(=O)=O [Example 300, 6-((2-aminoethyl)sulfonyl)-3-(2-oxo-2,3-dihydro-1H-benzo[d]imidazol-4-yl)-2-(1H-tetrazol-5-yl) benzenesulfonamide] | 0.415 | 0.254 | 0.162 | – | – | – | 1.563 | 2.00 | 0.7813 | – | 0.7813 | 3.125 | 1.563 |
| NCCS(=O)(=O)c1ccc(-c2cccc3[nH]c(CN)nc23)c(-c2nn[nH]n2)c1S(N)(=O)=O [Example 305, 6-((2-aminoethyl)sulfonyl)-3-(2-(aminomethyl)-1H-benzo[d]imidazol-4-yl)-2-(2H-tetrazol-5-yl)benzenesulfonamide] | 1.91 | 0.643 | 0.493 | – | – | – | 1.563 | 2.00 | 0.7813 | – | 1.563 | 1.563 | 0.7813 |
| Nc1nc2c(-c3ccc(S(=O)(=O)C4CNC4)c(S(N)(=O)=O)c3-c3nn[nH]n3)ccc(C(F)(F)F)c2s1 [Example 34, 3-(2-amino-7-(trifluoromethyl)benzo[d]thiazol-4-yl)-6-(azetidin-3-ylsulfonyl)-2-(2H-tetrazol-5-yl)benzenesulfonamide] | 0.229 | 0.0713 | 0.175 | 0.7813 | 1.563 | 0.7813 | 6.25 | 8.00 | 0.7813 | – | – | – | – |
| NCCS(=O)(=O)c1ccc(-c2cccc3[nH]c(=O)[nH]c23)c(-c2nnn[nH]2)c1S(N)(=O)=O.O=C(O)C(F)(F)F [Example 150, 2-((4-(2-oxo-2,3-dihydro-1H-benzo[d]imidazol-4-yl)-2-sulfamoyl-3-(1H-tetrazol-5-yl)phenyl)sulfonyl)ethanaminium 2,2,2-trifluoroacetate] | 0.931 | 0.497 | 0.44 | 3.125 | 3.125 | 3.125 | 1.563 | 1.00 | 1.563 | – | – | – | – |
